Residue numbers refer to the chain shown, from its start. Read-outs that look alike come from different tables or passages of the source. Square brackets hold non-standard residues; d marks the D form. Ends that are not written are not given here. pS = N[C@@H](COP(=O)(O)O)C(=O)O
Experiments:
Experiment in all cases: PDK1 activity assay with T308tide
Format in all cases: biochemical
GST-PDK1 [Gln150Ala] = molecular target: T1, GST-PDK1 [Gln150Ala] (Homo sapiens, UniProt O15530, Q150A); conditions: for AC50 / Max. activity: GST-PDK1 [Gln150Ala]; for activation of PDK1 mutant (in words): PDK1[Gln150Ala], 20 μM
T1 construct: different protein constructs, comprising the full length protein or the catalytic domain alone; made in house; host or cells: HEK293 cells (pEBG-2T-PDK1 mutant)
T1 sequence (O15530 1-556 Q150A): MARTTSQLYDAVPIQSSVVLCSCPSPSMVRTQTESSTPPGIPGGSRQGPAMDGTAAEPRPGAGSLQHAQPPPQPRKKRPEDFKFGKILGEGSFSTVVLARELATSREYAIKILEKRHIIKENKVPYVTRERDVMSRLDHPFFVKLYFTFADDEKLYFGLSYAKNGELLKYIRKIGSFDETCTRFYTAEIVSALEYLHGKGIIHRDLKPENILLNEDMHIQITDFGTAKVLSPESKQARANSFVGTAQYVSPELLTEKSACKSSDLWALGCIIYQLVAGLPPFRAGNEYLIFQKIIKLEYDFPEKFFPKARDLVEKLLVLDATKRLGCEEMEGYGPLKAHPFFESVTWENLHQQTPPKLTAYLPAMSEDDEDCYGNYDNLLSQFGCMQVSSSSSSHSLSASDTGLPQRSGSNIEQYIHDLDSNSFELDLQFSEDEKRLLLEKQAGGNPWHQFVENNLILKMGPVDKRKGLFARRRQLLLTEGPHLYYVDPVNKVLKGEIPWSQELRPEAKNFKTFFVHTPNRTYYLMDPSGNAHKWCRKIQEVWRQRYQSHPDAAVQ
Protocol: (§1) Protein kinase activity tests were performed essentially as previously described (Balendran et al., 2000; Biondi et al., 2000; Biondi et al., 2001). Substrates used were either MBP (for PKCζ or polypeptides (Crosstide for PKB, S6K, SGK and PRK2; T308tide for PDK1, and Kemptide for PKA). PKA (Sigma) was measured in the presence of 100 μM cAMP. Alternatively, assays were performed in a 96 well format, aliquots spotted on p81 phosphocellulose papers (Whatmann), washed in 0.01% phosphoric acid, dried, and then exposed and analysed using Phospholmager technology (Storm, Molecular Dynamics). Activity measurements were performed in duplicates with less than 10% difference between duplicate pairs. Experiments were repeated at least twice, although most of the experiments were repeated multiple times, with similar results.
(§2) PDK1 activity assay was performed in a 20 μl mix containing 50 mM Tris-HCl pH 7.5, 0.05 mg/ml BSA, 0.1% β-mercaptoethanol, 10 mM MgCl2, 100 μM [γ^32P]ATP (5-50 cpm/pmol), 0.003% Brij, 150 ng PDK1, and T308tide (from 0.05 to 1 mM). PDK1 specific activity was approximately 5 U/mg (when measured at 1 mM T308tide). The effect of small compounds on PDK1 was repeated with proteins from different purification batches and with different protein constructs, comprising the full length protein or the catalytic domain alone, with similar results. […] This variability may be due to the PIFtide/compound-stimulated autophosphorylation of the activation loop in certain preparations having less than a 1:1 molar phosphorylation stoichiometry at this site.
(§3) PDK1 activity was measured at room temperature using a polypeptide substrate derived from the activation loop phosphorylation site of PKB, T308tide (0.1 mM). […] GST-PDK1 wt was purified in numerous occasions and the maximal activation level of different batches varied between 3 and 8 fold activation with PIFtide or compound 1. Variations in the basal activity and fold activation were also observed in mutants. Therefore, comparisons in the maximal level of activation between mutants should be performed with care. The data shown are from an experiment where PIFtide concentrations were tested between 50 nM and 20 µM and compound 1 concentrations were between 5 μM and 200 μM, in triplicate. AC50 and max. activity were estimated by fitting the data to a hyperbola using Kaleidagraph software. One Unit of PDK1 activity was defined as the amount required to catalyse the phosphorylation of 1 nmol of the T308tide in 1 min.

GST-PDK1 [Thr148Val] = molecular target: T2, GST-PDK1 [Thr148Val] (Homo sapiens, UniProt O15530, T148V); conditions: for activation of PDK1 mutant (in words): PDK1[Thr148Val], 20 μM
T2 construct: different protein constructs, comprising the full length protein or the catalytic domain alone; made in house; host or cells: HEK293 cells (pEBG-2T-PDK1 mutant)
T2 sequence (O15530 1-556 T148V): T1 sequence (O15530 1-556 Q150A) with T148V, A150Q
Protocol: as §1, §2, §3

GST-PDK1 [Val127Leu] = molecular target: T3, GST-PDK1 [Val127Leu] (Homo sapiens, UniProt O15530, V127L); conditions: for activation of PDK1 mutant (in words): PDK1[Val127Leu]
T3 construct: different protein constructs, comprising the full length protein or the catalytic domain alone; made in house; host or cells: HEK293 cells (pEBG-2T-PDK1 mutant)
T3 sequence (O15530 1-556 V127L): T1 sequence (O15530 1-556 Q150A) with V127L, A150Q
Protocol: as §1, §2, §3

Compound	AC50 (GST-PDK1 [Gln150Ala])	Max. activity (GST-PDK1 [Gln150Ala])	activation of PDK1 mutant (in words) (GST-PDK1 [Gln150Ala])	Max. activity (GST-PDK1 [Thr148Val]; GST-PDK1 [Thr148Val])	AC50 (GST-PDK1 [Thr148Val]; GST-PDK1 [Thr148Val], read-out: AC50)	activation of PDK1 mutant (in words) (GST-PDK1 [Thr148Val])	AC50 (GST-PDK1 [Val127Leu]; GST-PDK1 [Val127Leu])	AC50 (GST-PDK1 [Thr148Val]; GST-PDK1 [Thr148Val])	Max. activity (GST-PDK1 [Val127Leu]; GST-PDK1 [Val127Leu])	AC50 (GST-PDK1 [Val127Leu]; GST-PDK1 [Val127Leu], read-out: AC50)	activation of PDK1 mutant (in words) (GST-PDK1 [Val127Leu])
O=C(O)CSC(CC(=O)c1ccc(Cl)cc1)c1ccccc1 (stereo not shown) [Compound 1]	55 ± 9 µM	1.12 ± 0.06 U/mg	still activated	2.44 ± 0.26 U/mg	102 ± 19 µM	still activated	No Effect				
REPRILSEEEQEMFRDFDYIADWC [PIFtide, reference compound]	0.5 ± 0.06 µM	1.55 ± 0.06 U/mg						INH	0.99 ± 0.08 U/mg	0.12 ± 0.03 µM	fully activated
P-HM-RSK: phosphorylated HM polypeptide of RSK: KGAGGGGFRGFS(P)FVA (KGAGGGGFRGF[pS]FVA)			completely abolished			completely abolished					fully activated

Reference: US20110152166A1, “METHOD OF MODULATION OF PROTEIN PHOSPHORYLATION-DEPENDENT CONFORMATIONAL TRANSITIONS WITH LOW MOLECULAR WEIGHT COMPOUNDS” (priority 2006, published 2011)
